The IC50 is the point on the concentration scale where inhibition reaches its midpoint. High values mean a need for much substance, low ones inhibition by little substance.

Each structure is given as a SMILES string.

human DGAT2 (hDGAT2), sequence (Q96PD7 whole entry): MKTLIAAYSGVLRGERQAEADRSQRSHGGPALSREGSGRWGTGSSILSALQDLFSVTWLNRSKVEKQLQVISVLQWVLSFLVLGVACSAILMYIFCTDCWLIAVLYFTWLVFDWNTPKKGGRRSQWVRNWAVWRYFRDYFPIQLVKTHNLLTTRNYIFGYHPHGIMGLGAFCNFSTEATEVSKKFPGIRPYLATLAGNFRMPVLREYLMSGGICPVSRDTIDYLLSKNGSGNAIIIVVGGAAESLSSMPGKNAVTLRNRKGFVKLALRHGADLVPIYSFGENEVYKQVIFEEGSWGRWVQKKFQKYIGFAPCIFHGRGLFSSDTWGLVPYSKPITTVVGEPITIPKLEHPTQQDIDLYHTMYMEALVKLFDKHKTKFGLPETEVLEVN

For the assay, the target named is human DGAT2 (hDGAT2) (Homo sapiens (Human), UniProt Q96PD7). The assay is described as follows: DGAT2 Enzymatic Activity Assay. The class given is biochemical. The note with it: hDGAT2 Sf-9 membrane prep; 13C18-triolein product by LC/MS/MS; 25 μM diolein, 5 μM 13C oleoyl-CoA. The essentials:
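Enzyme source was membrane fractions from Sf-9 cells infected with untagged hDGAT2 baculovirus. Reactions ran at room temperature, and product 13C18-triolein was quantified by LC/MS/MS against a 13C21-triolein internal standard. % inhibition was normalised to high and low controls, and IC50 derived from it.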
As to `[2H]C([2H])([2H])C([2H])([2H])Oc1cc(-c2nn(C(C)C)c3c2CC[C@@H](C(=O)NC2(C)CCS(=O)(=O)CC2)C3)c(F)cn1` [Example 50, (R)-3-(2-(ethoxy-d5)-5-fluoropyridin-4-yl)-1-isopropyl-N-(4-methyl-1,1-dioxidotetrahydro-2H-thiopyran-4-yl)-4,5,6,7-tetrahydro-1H-indazole-6-carboxamide], half-maximal inhibition (IC50) was put at 51 nM.
Next, `[2H]C([2H])([2H])C([2H])(n1nc(-c2cc(OC(F)F)ccc2F)c2c1C[C@H](C(=O)NC1(C#N)CCS(=O)(=O)CC1)CC2)C([2H])([2H])[2H]` [Example 51, (R)-N-(4-cyano-1,1-dioxidotetrahydro-2H-thiopyran-4-yl)-3-(5-(difluoromethoxy)-2-fluorophenyl)-1-(propan-2-yl-d7)-4,5,6,7-tetrahydro-1H-indazole-6-carboxamide]: 4.3 nM; `CC(C)n1nc(-c2cc(OC(F)F)ccc2F)c2c1C[C@H](C(=O)NC1(C#N)CCS(=O)(=O)CC1)CC2` [Example 52, (R)-N-(4-cyano-1,1-dioxidotetrahydro-2H-thiopyran-4-yl)-3-(5-(difluoromethoxy)-2-fluorophenyl)-1-isopropyl-4,5,6,7-tetrahydro-1H-indazole-6-carboxamide]: 4.7 nM; `CCOc1ccc(F)c(-c2nn(C(C)C)c3c2CC[C@@H](C(=O)NC2(C)CCS(=O)(=O)CC2)C3)c1` [Example 54, (R)-3-(5-ethoxy-2-fluorophenyl)-1-isopropyl-N-(4-methyl-1,1-dioxidotetrahydro-2H-thiopyran-4-yl)-4,5,6,7-tetrahydro-1H-indazole-6-carboxamide]: 1.8 nM.
Next, `CC(C)n1nc(-c2cccc(OC(F)(F)F)c2)c2c1C[C@H](C(=O)NC1(C)CCS(=O)(=O)CC1)CC2` [Example 55, (R)-1-isopropyl-N-(4-methyl-1,1-dioxidotetrahydro-2H-thiopyran-4-yl)-3-(3-(trifluoromethoxy)phenyl)-4,5,6,7-tetrahydro-1H-indazole-6-carboxamide]: 86.6 nM.
In the case of `CC(C)n1nc(-c2cncc(OC(F)F)c2)c2c1C[C@H](C(=O)NC1(C)CCS(=O)(=O)CC1)CC2` [Example 56, (R)-3-(5-(difluoromethoxy)pyridin-3-yl)-1-isopropyl-N-(4-methyl-1,1-dioxidotetrahydro-2H-thiopyran-4-yl)-4,5,6,7-tetrahydro-1H-indazole-6-carboxamide] it was 414 nM; in that of `CC1(NC(=O)[C@@H]2CCc3c(-c4cc(OC(F)F)ccc4F)nn(C4CCC4)c3C2)CS(=O)(=O)C1` [Example 57, (R)-1-cyclobutyl-3-(5-(difluoromethoxy)-2-fluorophenyl)-N-(3-methyl-1,1-dioxidothietan-3-yl)-4,5,6,7-tetrahydro-1H-indazole-6-carboxamide], 22.8 nM.
`CCOC(=O)N1CCC(C)(NC(=O)[C@@H]2CCc3c(-c4cc(OC(F)F)ccc4F)nn(C(C)C)c3C2)C1` (stereo partly drawn) [Example 59, ethyl 3-((R)-3-(5-(difluoromethoxy)-2-fluorophenyl)-1-isopropyl-4,5,6,7-tetrahydro-1H-indazole-6-carboxamido)-3-methylpyrrolidine-1-carboxylate] registered an IC50 of 61 nM.
In the case of `CC(C)NC(=O)N1CCC(C)(NC(=O)[C@@H]2CCc3c(-c4cc(OC(F)F)ccc4F)nn(C(C)C)c3C2)C1` (stereo partly drawn) [Example 60, (6R)-3-(5-(difluoromethoxy)-2-fluorophenyl)-1-isopropyl-N-(1-(isopropylcarbamoyl)-3-methylpyrrolidin-3-yl)-4,5,6,7-tetrahydro-1H-indazole-6-carboxamide] it was 29.2 nM; in that of `CC(C)n1nc(-c2cc(OC(F)F)ccc2F)c2c1C[C@H](C(=O)NC1(C)CCN(C(=O)C3CC3)C1)CC2` (stereo partly drawn) [Example 61, (6R)-N-(1-(cyclopropanecarbonyl)-3-methylpyrrolidin-3-yl)-3-(5-(difluoromethoxy)-2-fluorophenyl)-1-isopropyl-4,5,6,7-tetrahydro-1H-indazole-6-carboxamide], 26.2 nM.
Next, `CC(C)n1nc(-c2cccc(OC(F)F)c2)c2c1C[C@H](C(=O)NCc1cccnc1)CC2` [Example 62, (R)-3-(3-(difluoromethoxy)phenyl)-1-isopropyl-N-(pyridin-3-ylmethyl)-4,5,6,7-tetrahydro-1H-indazole-6-carboxamide]: 8190 nM.
In the case of `CC(C)n1nc(-c2cccc(OC(F)F)c2)c2c1C[C@H](C(=O)NCc1cnoc1)CC2` [Example 63, (R)-3-(3-(difluoromethoxy)phenyl)-1-isopropyl-N-(isoxazol-4-ylmethyl)-4,5,6,7-tetrahydro-1H-indazole-6-carboxamide] it was 4560 nM.
With `CC(C)N1CCC(NC(=O)[C@@H]2CCc3c(-c4cc(OC(F)F)ccc4F)nn(C(C)C)c3C2)C1=O` (stereo partly drawn) [Example 64, (6R)-3-(5-(difluoromethoxy)-2-fluorophenyl)-1-isopropyl-N-(1-isopropyl-2-oxopyrrolidin-3-yl)-4,5,6,7-tetrahydro-1H-indazole-6-carboxamide], the IC50 amounted to 622 nM.
Next, `CC(C)n1nc(-c2cccc(OC(F)F)c2)c2c1C[C@H](C(=O)N[C@@H](C)CO)CC2` [Example 65, (R)-3-(3-(difluoromethoxy)phenyl)-N-((S)-1-hydroxypropan-2-yl)-1-isopropyl-4,5,6,7-tetrahydro-1H-indazole-6-carboxamide]: 7260 nM.
In turn, `COCC(C)(C)NC(=O)[C@@H]1CCc2c(-c3cccc(OC(F)F)c3)nn(C(C)C)c2C1` [Example 66, (R)-3-(3-(difluoromethoxy)phenyl)-1-isopropyl-N-(1-methoxy-2-methylpropan-2-yl)-4,5,6,7-tetrahydro-1H-indazole-6-carboxamide] returned an IC50 of 1330 nM.
In the case of `Cc1nnc(NC(=O)[C@@H]2CCc3c(-c4cccc(OC(F)F)c4)nn(C4CCOCC4)c3C2)s1` [Example 67, (R)-3-(3-(difluoromethoxy)phenyl)-N-(5-methyl-1,3,4-thiadiazol-2-yl)-1-(tetrahydro-2H-pyran-4-yl)-4,5,6,7-tetrahydro-1H-indazole-6-carboxamide] it was above 10000 nM; in that of `CC(C)n1nc(-c2cncc(OC(F)F)c2)c2c1C[C@H](C(=O)N[C@@H](C)CN1CCO[C@H](C)C1)CC2` [Example 68, (R)-3-(5-(difluoromethoxy)pyridin-3-yl)-1-isopropyl-N-((S)-1-((R)-2-methylmorpholino)propan-2-yl)-4,5,6,7-tetrahydro-1H-indazole-6-carboxamide], above 10000 nM; in that of `CCC1(NC(=O)[C@@H]2CCc3c(-c4cccc(OC(F)F)c4)nn(C(C)C)c3C2)CS(=O)(=O)C1` [Example 69, (R)-3-(3-(difluoromethoxy)phenyl)-N-(3-ethyl-1,1-dioxidothietan-3-yl)-1-isopropyl-4,5,6,7-tetrahydro-1H-indazole-6-carboxamide], 90 nM.
Next, `CC(C)n1nc(-c2cccc(OC(F)F)c2)c2c1C[C@H](C(=O)NCCN1CCS(=O)(=O)CC1)CC2` [Example 70, (R)-3-(3-(difluoromethoxy)phenyl)-N-(2-(1,1-dioxidothiomorpholino)ethyl)-1-isopropyl-4,5,6,7-tetrahydro-1H-indazole-6-carboxamide]: 18000 nM.
